The numbers were not newly measured in US20070248669A1, “Oral sustained release formulation” (priority 2006, published 2007), which cites them from elsewhere.

For series [1] the following is noted: daily multiple dosing regimen, patients under treatment.
The conditions of series [2]: compressed tablets, therapeutic dosing.

Structures are written as SMILES. Structures can show the parent of a compound that is named as a salt.

For `COc1ccc(C(CN(C)C)C2(O)CCCCC2)cc1` (stereo not drawn) [venlafaxine hydrochloride, 1-[2-(dimethylamino)-1-(4-methoxyphenyl)-ethyl]cyclohexanol], in series [1], the patients experiencing nausea result is “about forty five” and the patients with vomiting entry was “about seventeen”. Moreover, the “time after administration until normal plasma levels are approached” value in series [2] is given as “about twelve”.
